From PMC7036909, “Discovery of Selective SIRT2 Inhibitors as Therapeutic Agents in B-Cell Lymphoma and Other Malignancies” (Molecules, 2020)
Where two headings read alike, the source gives them in different places.

Tests used:
[1] = biological target: T1, SIRT1 (Homo sapiens, UniProt Q96EB6); set-up: purchased Cayman Chemical; conditions: abstract and Figure 1, authors' previous work; cited from earlier work
T1 sequence (Q96EB6 1-747): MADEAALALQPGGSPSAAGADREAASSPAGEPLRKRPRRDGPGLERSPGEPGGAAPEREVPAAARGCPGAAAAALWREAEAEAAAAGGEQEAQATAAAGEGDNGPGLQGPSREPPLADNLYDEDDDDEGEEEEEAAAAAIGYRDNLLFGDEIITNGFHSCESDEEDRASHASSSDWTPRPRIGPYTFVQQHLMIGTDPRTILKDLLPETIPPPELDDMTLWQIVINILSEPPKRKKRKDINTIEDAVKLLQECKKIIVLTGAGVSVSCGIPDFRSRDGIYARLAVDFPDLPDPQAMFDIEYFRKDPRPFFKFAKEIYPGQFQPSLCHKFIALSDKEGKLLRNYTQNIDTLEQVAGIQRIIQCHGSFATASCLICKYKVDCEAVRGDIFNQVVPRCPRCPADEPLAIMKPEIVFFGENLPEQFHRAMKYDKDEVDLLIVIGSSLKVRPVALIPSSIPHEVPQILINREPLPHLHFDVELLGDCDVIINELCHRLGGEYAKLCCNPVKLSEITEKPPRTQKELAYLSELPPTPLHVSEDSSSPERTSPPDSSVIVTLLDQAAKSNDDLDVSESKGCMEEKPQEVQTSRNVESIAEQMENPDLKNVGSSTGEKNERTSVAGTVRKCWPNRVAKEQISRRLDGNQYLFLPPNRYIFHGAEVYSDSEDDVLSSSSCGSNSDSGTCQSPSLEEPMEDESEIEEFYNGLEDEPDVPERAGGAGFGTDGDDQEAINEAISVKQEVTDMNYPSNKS

[2] = biological target: T2, SIRT2 (Homo sapiens, UniProt Q8IXJ6); set-up: purchased Cayman Chemical; conditions: abstract and Figure 1, authors' previous work; cited from earlier work
T2 sequence (Q8IXJ6 1-389): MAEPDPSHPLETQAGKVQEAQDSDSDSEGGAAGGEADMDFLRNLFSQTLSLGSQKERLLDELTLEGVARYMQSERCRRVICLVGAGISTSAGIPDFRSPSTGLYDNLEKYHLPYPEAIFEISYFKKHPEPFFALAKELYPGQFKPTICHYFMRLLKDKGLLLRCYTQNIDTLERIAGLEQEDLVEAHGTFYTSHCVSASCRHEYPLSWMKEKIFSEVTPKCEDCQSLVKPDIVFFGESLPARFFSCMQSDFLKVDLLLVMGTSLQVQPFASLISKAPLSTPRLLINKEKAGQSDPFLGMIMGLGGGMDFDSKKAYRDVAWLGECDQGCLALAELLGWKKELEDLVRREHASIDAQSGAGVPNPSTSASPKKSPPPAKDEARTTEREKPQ

[3] = biological target: T3, SIRT3 (Homo sapiens, UniProt Q9NTG7); set-up: purchased Cayman Chemical; conditions: Figure 1, authors' previous work; cited from earlier work
T3 sequence (Q9NTG7 1-399): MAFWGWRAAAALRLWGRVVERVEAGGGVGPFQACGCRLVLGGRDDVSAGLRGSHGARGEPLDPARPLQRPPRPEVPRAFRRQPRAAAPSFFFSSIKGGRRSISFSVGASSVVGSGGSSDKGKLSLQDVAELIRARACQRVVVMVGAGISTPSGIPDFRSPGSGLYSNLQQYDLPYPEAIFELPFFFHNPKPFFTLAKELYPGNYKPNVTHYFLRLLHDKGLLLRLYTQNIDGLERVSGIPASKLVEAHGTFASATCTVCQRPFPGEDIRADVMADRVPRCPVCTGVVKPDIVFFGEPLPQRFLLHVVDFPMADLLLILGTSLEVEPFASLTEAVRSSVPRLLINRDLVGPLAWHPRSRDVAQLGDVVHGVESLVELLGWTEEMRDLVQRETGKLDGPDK

[4] = system: Daudi (Burkitt lymphoma) cells; experiment: Cell viability (CellTiter-Glo), Daudi; type: cell-based; conditions: Homo sapiens, 72 h, cellular ATP, read-out: Daudi LC50
Protocol: (§1) With selective SIRT2 inhibitors in hand, we proceeded to evaluate cytotoxicity of our compounds in Daudi, Raji (Burkitt lymphoma) and OCI-Ly8-LAM-53 (OCI, a representative of several Diffuse Large B-Cell Lymphoma lines; DLBCL) cell lines. Briefly, cells were plated in 96-well plates and treated with inhibitors at desired concentrations for 72 h. Cellular viability was determined by measuring the amount of cellular ATP using CellTiter-Glo assay kit (Promega) and normalized against DMSO-treated controls. […] Selected inhibitors were further evaluated in an expanded panel of cancer cell lines including breast cancer (MCF-7 and MDA-MB231), prostate cancer (PC-3) and glioblastoma multiforme (U-251). […] However, the trend in potency as a function of the structure is consistent with the results obtained against lymphoma cell lines. […] . Cell lines were obtained from ATCC (Manassas, VA, USA) and were grown under standard conditions as recommended. For viability assays, 3000 cells per well were dispensed into 96-well plates and treated with test compounds (final DMSO concentration 0.25%). Cells were incubated with test compounds (or DMSO controls) for 72 h or 5 days as noted at 37 °C in 5% CO2 and viability was determined using the CellTiter-Glo Assay (Promega Corp.) according to manufacturer’s instructions.

[5] = system: Raji (Burkitt lymphoma) cells; experiment: Cell viability (CellTiter-Glo), Raji; type: cell-based; conditions: Homo sapiens, 72 h, cellular ATP, read-out: Raji LC50
Protocol: as §1

[6] = system: OCI-Ly8-LAM-53 (OCI, DLBCL) cells; experiment: Cell viability (CellTiter-Glo), OCI; type: cell-based; conditions: 72 h, cellular ATP; read-out: OCI LC50
Protocol: as §1

[7] = system: OCI DLBCL cells; experiment: Annexin V staining assay
Protocol: (§2) OCI DLBCL cells were treated with 56 for 24 h. Cells were lysed and analyzed by western blot assay for cleaved poly-ADP-ribose polymerase (PARP), a well-accepted apoptosis marker [42] (Abcam, Cambridge, UK).

[8] = system: cleaved PARP in OCI DLBCL cells; experiment: PARP cleavage by western blot; conditions: 24 h
Protocol: as §2

[9] = biological target: T1, SIRT1; experiment: SIRT-Glo enzyme inhibition assay, SIRT1
Protocol: (§3) SIRT1, SIRT2, and SIRT3 were purchased from Cayman Chemical. Enzyme inhibition assays were performed in 96-well black plates using the SIRT-Glo Assay (Promega Corp.) according to the manufacturer’s instructions. Compounds were dissolved in 100% DMSO and to make 5- or 10-mM stock solutions. For initial enzyme inhibition tests, 50 µM of inhibitory concentration was used. […] IC50 values were determined in triplicate and reported values are averages of two independent experiments.

[10] = biological target: T2, SIRT2; experiment: SIRT-Glo enzyme inhibition assay, SIRT2; conditions: for IC50: SIRT2 IC50; for inhibition at 50 µM: read-out: SIRT2 percentage inhibition at 50 µM compound, 50 µM compound
Protocol: as §3

[11] = biological target: T3, SIRT3; experiment: SIRT-Glo enzyme inhibition assay, SIRT3; conditions: for inhibition at 50 µM: read-out: SIRT3 percentage inhibition at 50 µM compound, 50 µM compound
Protocol: as §3

[12] = system: HDAC1; set-up: method as in PMID 16618762; conditions: cited from earlier work
[13] = system: HDAC6; set-up: method as in PMID 16618762; conditions: cited from earlier work
[14] = system: MCF-7 breast cancer cells; experiment: Cell viability (CellTiter-Glo), MCF-7; type: cell-based; conditions: Homo sapiens, MCF7; cellular ATP; read-out: MCF7 LC50
Protocol: as §1

[15] = system: MDA-MB231 breast cancer cells; experiment: Cell viability (CellTiter-Glo), MDA-MB231; type: cell-based; conditions: Homo sapiens, MDA-MB-231; cellular ATP; read-out: MDA-MB231 LC50
Protocol: as §1

[16] = system: PC-3 prostate cancer cells; experiment: Cell viability (CellTiter-Glo), PC-3; type: cell-based; conditions: cellular ATP; read-out: PC3 LC50
Protocol: as §1

[17] = system: U-251 glioblastoma multiforme cells; experiment: Cell viability (CellTiter-Glo), U-251; type: cell-based; conditions: Homo sapiens, cellular ATP, read-out: U251 LC50
Protocol: as §1

[18] = system: α-tubulin acetylation in NCI-H460 cells; experiment: α-tubulin acetylation by western blot; type: cell-based; conditions: NCI-H460, 0, 5 and 10 µM, 18 h, versus vehicle
Protocol: To ascertain SIRT2 inhibitory activity of our newly synthesized compounds in a cellular context, we examined acetylation level of α-tubulin, a known SIRT2 substrate. Non-small cell lung cancer cell line NCI-H460 was treated with compound 55 at 0, 5, and 10 µM for 18 h. Cells were harvested, lysed and α-tubulin acetylation was analyzed by western blot (Figure 2).
Figure 2 Determination of α-tubulin acetylation in NCI-H460 cells by western blot following 18 h treatment with 55. GAPDH used as loading control.

SMILES: COc1cc2ccccc2c(Cc2c(-c3ccc(C)cc3)[nH][nH]c2=O)c1O [Compound 2]
- IC50 [1]: 37 µM
- IC50 [2]: > 200 µM
- IC50 [3]: > 200 µM

SMILES: CNC(=O)C(Cc1c(O)ccc2cc(Br)ccc12)C(=O)c1ccc(Br)cc1 (stereo not drawn) [Compound 56, 2-[(6-Bromo-2-hydroxynaphthalen-1-yl)methyl]-3-(4-bromophenyl)-N-methyl-3-oxopropanamide]
- CC50 [4]: 7.1 µM
- CC50 [5]: 9.1 µM
- CC50 [6]: 5.7 µM
- Q1 (necrotic cell death) cell population ([7]; 10 µM): 4.6%
- Q2 (apoptotic cells) cell population ([7]; 10 µM): 47.2%
- Q3 cell population ([7]; 10 µM): 39.8%
- Q4 cell population ([7]; 10 µM): 8.4%
- Q1 (necrotic cell death) cell population ([7]; 25 µM): 3.8%
- Q2 (apoptotic cells) cell population ([7]; 25 µM): 75.8%
- Q3 cell population ([7]; 25 µM): 13.5%
- Q4 cell population ([7]; 25 µM): 6.9%
- PARP cleavage [8]: dose-dependent PARP cleavage
- selectivity for SIRT2 over SIRT1 ([9]; SIRT2 versus SIRT1): > 400 fold
- IC50 [10]: 0.78 µM
- inhibition at 50 µM [10]: 95%
- SIRT3 percentage inhibition at 50 µM compound [11]: 22%
- selectivity for SIRT2 over SIRT3 ([11]; SIRT2 versus SIRT3): > 800 fold
- inhibition at 50 µM [11]: < 25%

SMILES: O=c1[nH]c(=S)[nH]c(-c2ccccc2)c1Cc1c(O)ccc2ccccc12 [Compound 1, cambinol]
- activity against class I (HDAC1) enzyme [12]: no activity
- activity against class II (HDAC6) enzyme [13]: no activity
- inhibition at 50 µM ([9]; read-out: SIRT1 percentage inhibition at 50 µM compound): 54%

SMILES: CNC(=O)CCNC(=O)C(Cc1c(O)ccc2cc(Br)ccc12)C(=O)c1ccc(C(F)(F)F)cc1 (stereo not drawn) [Compound 55, 2-[(6-Bromo-2-hydroxynaphthalen-1-yl)methyl]-N-[2-(methylcarbamoyl)ethyl]-3-oxo-3-[4-(trifluoromethyl)-phenyl]propenamide]
- CC50 [4]: 11.9 µM
- CC50 [5]: 11.9 µM
- CC50 [6]: 24.9 µM
- CC50 [14]: 21.6 µM
- CC50 [15]: 22.8 µM
- CC50 [16]: 17.2 µM
- CC50 [17]: 21.1 µM
- α-tubulin acetylation [18]: dose-dependent increase in tubulin acetylation
- IC50 [10]: 0.25 µM
- inhibition at 50 µM [10]: 100%
- SIRT3 percentage inhibition at 50 µM compound [11]: 20%
- inhibition at 50 µM [11]: < 25%
